Measured values taken from patent US20200341000A1, “METHOD OF SCREENING COMPOUNDS FOR TREATING CNS DISORDERS” (SAGE THERAPEUTICS, INC., priority 2017, published 2020).

Columns and labels:
[1] = test system: sIPSCs in DGGCs (mutant mice); assay: Decay time of sIPSCs in DGGCs of mutant mice; format: cell-based; conditions: 100 nM
Protocol: The ability of 100 nM ALLO to modulate the decay time of sIPSCs was compared in DGGCs from WT and S940A mice as detailed in FIG. 2.

[2] = test system: GT1-7 cells (co-express mPRα and GABAARs), β3 S408/9 phosphorylation; assay: Immunoblot of β3 S408/9 phosphorylation in GT1-7 cells; format: cell-based; conditions: 100 nM, 15 min; n=6
Protocol: GT1-7 cells that co-express mPRα and GABAARs were used to measure the level of phosphorylation at S408/9 position of β3 subunit. Quantitative PCR analysis indicated the enrichment of the mPRα mRNA in GT1-7 cells (FIG. 15A upper, figure taken from Thomas and Pang 2012). Expression of mPRα was confirmed using western blotting. 10 and 15 μg of SDS-soluble extracts from GT1-7 cells were immunoblotted with an mPRα specific antibody (FIG. 15A lower).
GT1-7 cells were treated with 100 nM AllO or P4 for 15 min and immunoblotted with antibodies specifically recognizing β3, actin, and […] β3 subunit (pS408/9). The ratio of pS408/9 β3 subunit immunoreactivity were then normalized to levels seen in vehicle treated to controls, n=6.

[3] = test system: GABA-evoked currents in GT1-7 cells; assay: Patch-clamp of GABA-induced currents in GT1-7 cells, compound in the pipette electrolyte; format: cell-based; conditions: 100 nM in electrolyte, GABA EC20, 20 min time course
Protocol: Patch-clamp recordings were made from GT1-7 cells. The magnitude of the GABA-induced currents (IGABA) at EC20 agonists concentration were then measured, in the presence of control electrolyte or that supplemented with 100 nM ALLO, or 100 nM ORG OD 02-0 over a time course of 20 min.

[4] = test system: sIPSCs in dentate gyms granule cells (DGGCs); assay: sIPSCs in DGGCs after 15 min exposure and >30 min wash; format: cell-based, mice
Protocol: For tonic current measurements, an all-points histogram was plotted for a 10 s period before and during 100 μM picrotoxin application, once the response reached a plateau level. Recordings with unstable baselines were discarded. Fitting the histogram with a Gaussian distribution gave the mean baseline current amplitude and the difference between the amplitudes before and during picrotoxin was considered to be the tonic current. The negative section of the all-points histogram which corresponds to the inward IPSCs was not fitted with a Gaussian distribution (Kretschmannova et al., 2013; Nusser and Mody, 2002). Series resistance and whole-cell capacitance were continually monitored and compensated throughout the course of the experiment. Recordings were eliminated from data analysis if series resistance increased by >20%. Spontaneous inhibitory post-synaptic currents (sIPSCs) were analyzed using the mini-analysis software (version 5.6.4; Synaptosoft, Decatur, Ga.). Minimum threshold detection was set to 3 times the value of baseline noise signal. […] Only recordings with a minimum of 200 events fitting these criteria were analyzed. sIPSCs amplitude, and frequency from each experimental condition was pooled and expressed as mean±SEM. To measure sIPSC decay, 100 consecutive events were averaged and the decay was fitted to a double exponential and the weighted decay constant (tw) was determined. […]

[5] = test system: GABAA receptor α4 subunit S443 phosphorylation; assay: Immunoblot of α4 S443 phosphorylation in hippocampal slices; format: cell-based, mice; conditions: 100 SGE-516 for 5 min
Protocol: Treatment of hippocampal slices with SGE-516 increased the phosphorylation of S408/9 measured using pS408/9 antibodies. To produce antibodies specific for phosphorylated S443, rabbits were injected with a synthetic peptide corresponding to residues […] of the murine α4 subunit in which the serine residue corresponding to S443 was chemically phosphorylated; […]. Hippocampal slices were treated with vehicle (Con), or SGE-516 for 20 min. Slices were immunoblotted with pS408/9, β3, or actin antibodies. The ratio of pS408/9/β3 immunoreactivity was then normalized to control slices (100%=the line).
Affinity purified pS443 was used to immunoblot varying concentrations of the immunizing phosphor-peptide (PP). pS443 was used to immunoblot extracts of hippocampal slices treated without preadsorption (0), preadsorbed with the dephosphorylated (DP), or phosphorylated antigen (PP). […] Moreover, the detection of this band was blocked by the phospho- but not the dephospho-antigen (FIG. 7B).
Hippocampal slices were treated with vehicle (Con) or 100 SGE-516 for 5 min and then immunoblotted with pS443 and α4 antibodies as indicated. pS443 immunoreactivity in hippocampal slices was increased by exposure to SGE-516, while total α4 levels were unaffected (FIG. 7C).

[6] = test system: plasma membrane GABAARs containing the α4 and β3 subunits (S408/9A mutant); assay: Biotinylation, surface/total GABAAR subunits in hippocampal slices of S408/9A mice; format: cell-based; conditions: 100 nM, 20 min
Protocol: Consistent with the examples above, hippocampal slices from WT and S408/9A mice were treated for 20 min with 100 nM SGE-516 or vehicle (Con) and subjected to biotinylation followed by immunoblotting with β3 and α4 subunit antibodies. The ratio of surface/total (S/T) immunoreactivity was then normalized to levels seen in control (100%).

[7] = test system: phosphorylation of S443 (α4) and S408/9 (β3); assay: Phosphorylation of GABAAR subunits in brain after IP injection; format: in vivo, mice; conditions: 5 mg/kg IP, 30 min after treatment
Protocol: C57/B16 mice injected with SGE-516 (5 mg/kg IP), or vehicle. 30 min after the treatment mice were sacrificed by microwave irradiation. SDS-soluble hippocampal extracts were then immunoblotted with pS443, α4, pS408/9, or β3 subunit antibodies.

[8] = test system: tonic current in DGGCs (β3 S408/9A mutant); assay: Sustained effect on tonic current in DGGCs from S408/9A mice; format: cell-based; conditions: 100 nM, slices from S408/9A mice

| Compound | decay time of sIPSCs [1] | S408/9 phosphorylation (pS408/9/β3) in GT1-7 cells [2] | GABA-evoked currents (IGABA) over time [3] | enhancement of sIPSC amplitude with GFX ([4]; 100 nM SGE-516 plus GFX) | sIPSC amplitude after exposure and wash ([4]; 100 nM, 15 min, washed >30 min) | pS443 immunoreactivity [5] | total α4 levels [5] | increase of plasma membrane levels of GABAARs containing α4 and β3 subunits [6] | phosphorylation of S443 and S408/9 in the brains [7] | tonic current in DGGCs after incubation and extensive washout [8] |
| --- | --- | --- | --- | --- | --- | --- | --- | --- | --- | --- |
| CC(=O)[C@H]1CC[C@H]2[C@@H]3CC[C@H]4C[C@H](O)CC[C@]4(C)[C@H]3CC[C@]12C [ALLO, Allopregnanolone] | did not increase | increase | sustained increases | – | – | – | – | – | – | – |
| C[C@@]1(O)CC[C@H]2[C@H](CC[C@@H]3[C@@H]2CC[C@]2(C)[C@@H](C(=O)Cn4nccn4)CC[C@@H]32)C1 [SGE-516] | – | – | – | significantly reduced | significantly enhanced | increased | unaffected | not seen | increased | did not modify |
